Laboratory results: US9676704B2, “Pesticidal compositions and processes related thereto” (Dow AgroSciences LLC, priority 2014, dated 2017)
Read-outs that look alike come from different tables or passages of the source.

What was measured:
Green Peach Aphid (GPA) = assay: Bioassays on Green Peach Aphid, cabbage seedling foliar spray; type: in vivo; conditions: Myzus persicae, 72 h, read-out: GPA % Control (or Mortality) rating
Method: Cabbage seedlings grown in 3-inch pots, with 2-3 small (3-5 cm) true leaves, were used as test substrate. The seedlings were infested with 20-50 GPA (wingless adult and nymph stages) one day prior to chemical application. Four pots with individual seedlings were used for each treatment. Test compounds (2 mg) were dissolved in 2 mL of acetone/MeOH (1:1) solvent, forming stock solutions of 1000 ppm test compound. The stock solutions were diluted 5× with 0.025% Tween 20 in water to obtain the solution at 200 ppm test compound. A hand-held aspirator-type sprayer was used for spraying a solution to both sides of […] leaves until runoff. Reference plants (solvent check) were sprayed with the diluent only containing 20% by volume of acetone/MeOH (1:1) solvent. Treated plants were held in a holding room for three days at approximately 25° C. and ambient relative humidity (RH) prior to grading. Evaluation was conducted by counting the number of live aphids per plant under a microscope. Percent Control was measured by using Abbott's correction formula (W. S. Abbott, “A Method of Computing the Effectiveness of an Insecticide” J. Econ. Entomol. 18 (1925), pp. 265-267) as follows. Corrected % Control=100*(X−Y)/X where X=No. of live aphids on solvent check plants and Y=No. of live aphids on treated plants. The results are indicated in the table entitled “Table ABC: Assay Results (F)” and “Table ABCD: Assay Results (C)” (See Table Section).

Cabbage Looper (CL) = assay: Bioassays on CL, 128-well diet tray assay; type: in vivo; conditions: Trichoplusia ni; for mortality at 50 µg/cm2: 168 h, read-out: CL % Control (or Mortality) rating; for mortality at 0.05 µg/cm2: 0.05 μg/cm^2; for mortality at 0.05 µg/cm2 / mortality at 0.5 µg/cm2 / mortality at 5 µg/cm2: read-out: CL Percent control (or mortality); for mortality at 0.5 µg/cm2: 0.5 μg/cm^2; for mortality at 5 µg/cm2: 5 μg/cm^2
Outline: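 Second-instar larvae, one to five per well, were placed on artificial diet treated with 50 μg/cm^2 compound (in 90:10 acetone-water) and dried, with eight wells per compound. Trays were held at 25° C, 14:10 light-dark, for five to seven days. Percent mortality was scored per well and averaged.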

Beet Armyworm (BAW) = assay: Bioassays on BAW, 128-well diet tray assay; type: in vivo; conditions: Spodoptera exigua; for mortality at 50 µg/cm2: 168 h, read-out: BAW % Control (or Mortality) rating; for mortality at 0.05 µg/cm2: 0.05 μg/cm^2; for mortality at 0.05 µg/cm2 / mortality at 0.5 µg/cm2 / mortality at 5 µg/cm2: read-out: BAW Percent control (or mortality); for mortality at 0.5 µg/cm2: 0.5 μg/cm^2; for mortality at 5 µg/cm2: 5 μg/cm^2
Outline: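 Test compound was applied at 50 μg/cm^2 in 90:10 acetone-water to the artificial diet surface and dried, with eight wells per compound. One to five second-instar beet armyworm larvae were placed per well and held at 25 °C, 14:10 light-dark, for five to seven days. Percent mortality was averaged over the wells.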

[1] = tested on: Yellow Fever Mosquito (YFM); type: in vivo, Aedes aegypti; conditions: 15 μL of diluted 4000 ppm master solution per well, about 1 day-old larvae, 3 days
Method: Master plates containing 400 μg of a molecule dissolved in 100 μL of dimethyl sulfoxide (DMSO) (equivalent to a 4000 ppm solution) are used. A master plate of assembled molecules contains 15 μL per well. To this plate, 135 μL of a 90:10 water:acetone mixture is added to each well. A robot (Biomek® NXP Laboratory Automation Workstation) is programmed to dispense 15 μL aspirations from the master plate into an empty 96-well shallow plate (“daughter” plate). There are 6 reps (“daughter” plates) created per master. The created daughter plates are then immediately infested with YFM larvae. The day before plates are to be treated, mosquito eggs are placed in Millipore water containing liver powder to begin hatching (4 g. into 400 mL). After the daughter plates are created using the robot, they are infested with 220 μL of the liver powder/larval mosquito mixture (about 1 day-old larvae). After plates are infested with mosquito larvae, a non-evaporative lid is used to cover the plate to reduce drying. Plates are held at room temperature for 3 days prior to grading. After 3 days, each well is observed and scored based on mortality. The results are indicated in the table entitled “Table ABC: Assay Results (F)” and “Table ABCD: Assay Results (C)” (See Table Section). Pesticidally Acceptable Acid Addition Salts, Salt Derivatives, Solvates, Ester Derivatives, Polymorphs, Isotopes and Radionuclides

[2] = 200 ppm foliar spray on cabbage seedlings, three days, Abbott corrected % control
[3] = 50 μg/cm^2 on artificial diet, second instar larvae, five to seven days, 25° C.

Row | Structure (SMILES) | mortality at 200 ppm (Green Peach Aphid (GPA); foliar) [%] | mortality at 50 µg/cm2 (Cabbage Looper (CL)) [%] | mortality at 50 µg/cm2 (Beet Armyworm (BAW)) [%] | YFM % Control (or Mortality) rating [1] | mortality at 200 ppm (Green Peach Aphid (GPA); [2]) [%] | mortality at 50 µg/cm2 (Cabbage Looper (CL); [3]) [%] | mortality at 0.05 µg/cm2 (Cabbage Looper (CL)) [%] | mortality at 0.5 µg/cm2 (Cabbage Looper (CL)) [%] | mortality at 5 µg/cm2 (Cabbage Looper (CL)) [%] | mortality at 50 µg/cm2 (Beet Armyworm (BAW); [3]) [%] | mortality at 0.05 µg/cm2 (Beet Armyworm (BAW)) [%] | mortality at 0.5 µg/cm2 (Beet Armyworm (BAW)) [%] | mortality at 5 µg/cm2 (Beet Armyworm (BAW)) [%]
1 | CN(CCNC(=O)c1ccc(/C=C/C(c2cc(Cl)c(Cl)c(Cl)c2)C(F)(F)F)cc1C(F)(F)F)C(=O)OC(C)(C)C (centres unmarked) [Compound C113, (E)-tert-butyl methyl(2-(4-(4,4,4-trifluoro-3-(3,4,5-trichlorophenyl)but-1-en-1-yl)-2-(trifluoromethyl)benzamido)ethyl)carbamate] | 0 | 50 to 100 | 50 to 100 | A (80-100) |  |  |  |  |  |  |  |  | 
2 | C[C@H](NC(=O)CC(F)(F)F)NC(=O)c1ccc(/C=C/C(c2cc(Cl)c(Cl)c(Cl)c2)C(F)(F)F)cc1C(F)(F)F (stereo partly drawn) [Compound F2, 4-((E)-4,4,4-trifluoro-3-(3,4,5-trichlorophenyl)but-1-en-1-yl)-2-(trifluoromethyl)-N—((R)-1-(3,3,3-trifluoropropanamido)ethyl)benzamide] |  |  |  | A (80-100) | 0 | 50 to 100 | 100 | 100 | 100 | 50 to 100 | 100 | 100 | 100
3 | C[C@H](NC(=O)CC(F)(F)F)NC(=O)c1ccc(/C=C/C(c2cc(Cl)c(Cl)c(Cl)c2)C(F)(F)F)cc1Br (some centres unmarked) [Compound P24] |  |  |  | D (No activity noticed in this bioassay) |  | 50 to 100 | 6 | 19 | 100 | 50 to 100 | 0 | 7 | 87
4 | C[C@H](NC(=O)CCC(F)(F)F)NC(=O)c1ccc(/C=C/C(c2cc(Cl)c(Cl)c(Cl)c2)C(F)(F)F)cc1Br (stereo partly drawn) [Compound P27, 2-Bromo-4-((E)-4,4,4-trifluoro-3-(3,4,5-trichlorophenyl)but-1-en-1-yl)-N—((R)-1-(4,4,4-trifluorobutanamido)ethyl)benzamide] |  |  |  | B (More than 0-Less than 80) |  | 50 to 100 | 0 | 7 | 100 | 50 to 100 | 0 | 0 | 7
5 | C[C@@H](NC(=O)c1ccc(/C=C/C(c2cc(Cl)c(Cl)c(Cl)c2)C(F)(F)F)cc1C(F)(F)F)NC(=O)C(C)(C)C(F)(F)F (stereo partly drawn) [Compound P33, N—((S)-1-(3,3,3-Trifluoro-2,2-dimethylpropanamido)ethyl)-4-((E)-4,4,4-trifluoro-3-(3,4,5-trichlorophenyl)but-1-en-1-yl)-2-(trifluoromethyl)benzamide] |  |  |  | A (80-100) |  | 50 to 100 |  |  |  | 50 to 100 |  |  | 
6 | C[C@H](NC(=O)C[S+](C)[O-])NC(=O)c1ccc(/C=C/C(c2cc(Cl)c(Cl)c(Cl)c2)C(F)(F)F)cc1C(F)(F)F (stereo partly drawn) [Compound P36, N-((1S)-1-(2-(Methylsulfinyl)acetamido)ethyl)-4-((E)-4,4,4-trifluoro-3-(3,4,5-trichlorophenyl)but-1-en-1-yl)-2-(trifluoromethyl)benzamide] |  |  |  |  | 0 | 50 to 100 |  |  |  | 50 to 100 |  |  | 
7 | C[C@H](NC(=O)CC[S+](C)[O-])NC(=O)c1ccc(/C=C/C(c2cc(Cl)c(Cl)c(Cl)c2)C(F)(F)F)cc1C(F)(F)F (stereo partly drawn) [Compound P49, N-((1R)-1-(3-(methylsulfinyl)propanamido)ethyl)-4-((E)-4,4,4-trifluoro-3-(3,4,5-trichlorophenyl)but-1-en-1-yl)-2-(trifluoromethyl)benzamide] |  |  |  |  | 0 to 80 | 50 to 100 |  |  |  | 50 to 100 |  |  | 
